We go through one molecule from patent publication US11267826B2, “Penicillin-binding protein inhibitors” (priority 2017, dated 2022).

This assay deals with T1, E. coli PBP3 (Escherichia coli, UniProt P0AD68).
T1 construct: 100 μg's of total membrane protein extracts containing PBPs; endogenous in cells; host or cells: Escherichia coli K12, membrane protein fraction
Briefly: Bocillin FL competition binding assay, PBP3. Also on record: species or system Escherichia coli K12. To be noted: 15 min pre-incubation. Summed up: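 E. coli K12 membrane extracts (100 µg protein) pre-incubated 15 min with compound (0.005–2,480 µg/mL) in pH 7 phosphate/350 mM NaCl, then labelled with Bocillin FL 30 min at 35°C; SDS-PAGE fluorescence (ex 450/em 520 nm), μg/mL reported. PBP1a/1b unresolved, reported combined.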

T1 sequence (P0AD68 1-577): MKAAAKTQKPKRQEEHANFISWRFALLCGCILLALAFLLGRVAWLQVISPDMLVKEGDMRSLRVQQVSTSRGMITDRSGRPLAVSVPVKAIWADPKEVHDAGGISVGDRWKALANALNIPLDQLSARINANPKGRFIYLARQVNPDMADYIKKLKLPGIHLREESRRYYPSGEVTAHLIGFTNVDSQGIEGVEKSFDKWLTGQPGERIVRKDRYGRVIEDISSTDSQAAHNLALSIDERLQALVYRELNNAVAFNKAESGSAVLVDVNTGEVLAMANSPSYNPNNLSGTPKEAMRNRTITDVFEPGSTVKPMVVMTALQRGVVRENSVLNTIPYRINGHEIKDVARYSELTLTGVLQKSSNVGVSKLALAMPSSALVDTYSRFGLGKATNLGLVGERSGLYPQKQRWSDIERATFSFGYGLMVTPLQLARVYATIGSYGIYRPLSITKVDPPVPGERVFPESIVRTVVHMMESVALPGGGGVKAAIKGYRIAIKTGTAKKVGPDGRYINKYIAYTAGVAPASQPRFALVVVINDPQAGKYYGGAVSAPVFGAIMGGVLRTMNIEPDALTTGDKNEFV

Turning to `Nc1nc(/C(=N/O)C(=O)N[C@H]2Cc3cccc(C(=O)O)c3OB2O)cs1` [Example 6, (R,Z)-3-(2-(2-aminothiazol-4-yl)-2-(hydroxyimino)acetamido)-2-hydroxy-3,4-dihydro-2H-benzo[e][1,2]oxaborinine-8-carboxylic Acid], the “E. coli PBP3 Potency” value was “B (B represents a potency between 64 and 1000 μg/mL inclusive)”.
